Experimental data as given in US12110294B2, “CD73 compounds” (Gilead Sciences, Inc., priority 2020, dated 2024).

Legend:
CD73 = target: T1, CD73 (Homo sapiens, UniProt P21589); assay type: biochemical; conditions: 1 mM NaH2PO4 in enzyme buffer, final AMP 15 uM, final CD73 0.3 nM
T1 construct: purchased R&D system
T1 sequence (P21589 27-549): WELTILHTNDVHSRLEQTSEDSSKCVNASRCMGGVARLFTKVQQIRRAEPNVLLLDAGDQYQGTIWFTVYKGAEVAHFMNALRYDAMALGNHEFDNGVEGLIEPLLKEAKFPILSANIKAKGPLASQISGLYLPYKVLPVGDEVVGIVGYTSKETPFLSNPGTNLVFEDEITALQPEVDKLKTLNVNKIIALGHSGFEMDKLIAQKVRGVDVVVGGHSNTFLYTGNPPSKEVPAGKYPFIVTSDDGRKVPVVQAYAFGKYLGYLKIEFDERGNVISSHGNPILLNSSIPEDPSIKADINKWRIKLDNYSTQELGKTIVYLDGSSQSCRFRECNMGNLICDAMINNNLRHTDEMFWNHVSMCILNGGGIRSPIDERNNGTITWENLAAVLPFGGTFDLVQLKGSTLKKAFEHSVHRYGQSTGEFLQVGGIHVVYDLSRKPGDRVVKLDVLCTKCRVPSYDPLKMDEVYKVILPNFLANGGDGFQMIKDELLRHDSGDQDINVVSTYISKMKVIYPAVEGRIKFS

[1] = target: T2, CD73 activity in MDA-MB-231-GFP cells (Homo sapiens, UniProt P21589); assay: MDA-MB-231 Cell Based CD73 Activity Assay (DMEM); conditions: 3000 cells per well, DMEM medium with 10% human plasma, overnight compound treatment, AMP 200 uM
T2 construct: endogenous in cells; host or cells: MDA-MB-231-GFP cells
T2 sequence (P21589 27-549): T1 sequence (P21589 27-549)

Row | IC50 (CD73) | EC50 [1] | Structure (SMILES)
1 | 11 nM | 30.2 nM | CN(C)C(=O)c1cn2nc(-c3c[nH]c(=O)[nH]c3=O)cc([C@H]3C[C@@H]3c3ccc(F)cc3)c2n1 (racemic) [Example 197, 6-(2,4-dioxo-1H-pyrimidin-5-yl)-8-[(1S,2S)-2-(4-fluorophenyl)cyclopropyl]-N,N-dimethyl-imidazo[1,2-b]pyridazine-2-carboxamide]
2 | > 250 nM | 809 nM | O=C(c1cn2nc(-c3c[nH]c(=O)[nH]c3=O)cc([C@H]3C[C@@H]3c3ccc(F)cc3)c2n1)N1C[C@@H](F)[C@@H](F)C1 (racemic) [Example 200, 5-[2-[(3S,4R)-3,4-difluoropyrrolidine-1-carbonyl]-8-[(1S,2S)-2-(4-fluorophenyl)cyclopropyl]imidazo[1,2-b]pyridazin-6-yl]-1H-pyrimidine-2,4-dione]
3 | 33.6 nM | 102 nM | O=c1[nH]cc(-c2cc([C@H]3C[C@@H]3c3ccnc(C(F)(F)F)n3)c3nccn3n2)c(=O)[nH]1 (racemic) [Example 271, 5-(8-((2S,2S)-2-(2-(trifluoromethyl)pyrimidin-4-yl)cyclopropyl)imidazo[1,2-b]pyridazin-6-yl)pyrimidine-2,4(1H,3H)-dione]
4 | 3.77 nM | 79 nM | O=c1[nH]cc(-c2cc([C@H]3C[C@@H]3c3ccc(OC(F)(F)F)cc3)c3ncc(F)n3n2)c(=O)[nH]1 (racemic) [Example 277, 5-(3-fluoro-8-((2S,2S)-2-(4-(trifluoromethoxy)phenyl)cyclopropyl)imidazo[1,2-b]pyridazin-6-yl)pyrimidine-2,4(1H,3H)-dione]
5 | 0.87 nM | 2.75 nM | NC(=O)c1ccc([C@H]2C[C@@H]2c2cc(-c3c[nH]c(=O)[nH]c3=O)nn3ccnc23)cc1 (racemic) [Example 283, 4-((2S,2S)-2-(6-(2,4-dioxo-1,2,3,4-tetrahydropyrimidin-5-yl)imidazo[1,2-b]pyridazin-8-yl)cyclopropyl)benzamide]
6 | 2.72 nM | 2.53 nM | O=c1[nH]cc(-c2cc([C@H]3C[C@@H]3c3ccc4cnn(CCC(F)(F)F)c4c3)c3nccn3n2)c(=O)[nH]1 (racemic) [Example 361, 5-(8-((1S,2S)-2-(1-(3,3,3-trifluoropropyl)-1H-indazol-6-yl)cyclopropyl)imidazo[1,2-b]pyridazin-6-yl)pyrimidine-2,4(1H,3H)-dione]
7 | 2.98 nM | 1 nM | N#Cc1nn(CC(F)(F)F)c2cc([C@H]3C[C@@H]3c3cc(-c4c[nH]c(=O)[nH]c4=O)nn4ccnc34)ccc12 (racemic) [Example 362, 6-((1S,2S)-2-(6-(2,4-dioxo-1,2,3,4-tetrahydropyrimidin-5-yl)imidazo[1,2-b]pyridazin-8-yl)cyclopropyl)-1-(2,2,2-trifluoroethyl)-1H-indazole-3-carbonitrile]
8 | 7.62 nM | 32.8 nM | O=c1[nH]cc(-c2cc([C@H]3C[C@@H]3c3cnc(C(F)(F)F)s3)c3nccn3n2)c(=O)[nH]1 (racemic) [Example 365, 5-(8-((2S,2S)-2-(2-(trifluoromethyl)thiazol-5-yl)cyclopropyl)imidazo[1,2-b]pyridazin-6-yl)pyrimidine-2,4(1H,3H)-dione]
9 | 17.5 nM | 67.6 nM | O=c1[nH]cc(-c2cc([C@H]3C[C@@H]3c3nc(C(F)(F)F)cs3)c3nccn3n2)c(=O)[nH]1 (racemic) [Example 367, 5-(8-((2S,2S)-2-(4-(trifluoromethyl)thiazol-2-yl)cyclopropyl)imidazo[1,2-b]pyridazin-6-yl)pyrimidine-2,4(1H,3H)-dione]
10 | 1.98 nM | 5.89 nM | O=c1[nH]cc(-c2cc([C@H]3C[C@@H]3c3ccc(C(F)F)cn3)c3nccn3n2)c(=O)[nH]1 (racemic) [Example 379, 5-(8-((1S,2S)-2-(5-(difluoromethyl)pyridin-2-yl)cyclopropyl)imidazo[1,2-b]pyridazin-6-yl)pyrimidine-2,4(1H,3H)-dione]
11 | 0.13 nM | 0.43 nM | O=C(NCC(F)(F)F)OC1CN(c2cc(-c3c[nH]c(=O)[nH]c3=O)nn3ncnc23)CC1(F)F (racemic) [Example 436, 1-(6-(2,4-dioxo-1,2,3,4-tetrahydropyrimidin-5-yl)-[1,2,4]triazolo[1,5-b]pyridazin-8-yl)-4,4-difluoropyrrolidin-3-yl (2,2,2-trifluoroethyl)carbamate]
12 | 1.05 nM | 2.04 nM | O=c1[nH]cc(-c2cc([C@H]3C[C@@H]3c3ccc(OCC(F)F)cn3)c3nccn3n2)c(=O)[nH]1 (racemic) [Example 590, 5-(8-((2S,2S)-2-(5-(2,2-difluoroethoxy)pyridin-2-yl)cyclopropyl)imidazo[1,2-b]pyridazin-6-yl)pyrimidine-2,4(1H,3H)-dione]
13 | 2.06 nM | 0.13 nM | O=c1[nH]cc(-c2cc([C@H]3C[C@@H]3c3cnc4cnn(CC(F)(F)F)c4c3)c3nccn3n2)c(=O)[nH]1 (racemic) [Example 614, 5-(8-((1S,2S)-2-(1-(2,2,2-trifluoroethyl)-1H-pyrazolo[4,3-b]pyridin-6-yl)cyclopropyl)imidazo[1,2-b]pyridazin-6-yl)pyrimidine-2,4(1H,3H)-dione]
14 | 5.66 nM | 16.3 nM | O=c1[nH]cc(-c2cc(N3C[C@H](O)C(F)(F)C3)c3nccn3n2)c(=O)[nH]1 (single isomer, unassigned) [Example 527]
15 | 6.25 nM | 12.9 nM | O=c1[nH]cc(-c2cc(N3C[C@@H](O)C(F)(F)C3)c3nccn3n2)c(=O)[nH]1 (single isomer, unassigned) [Example 528]
16 | – | 0.68 nM | O=C1N(CC(F)(F)F)c2cc([C@H]3C[C@@H]3c3cc(-c4c[nH]c(=O)[nH]c4=O)nn4c(Cl)c(Cl)nc34)ccc2C12CC2 (single isomer, unassigned) [Example 741]
17 | 6.41 nM | – | O=c1[nH]cc(-c2cc(N3CCC4(C3)CC4(F)F)c3nccn3n2)c(=O)[nH]1 (centres unmarked) [Example 192]
18 | 3.03 nM | – | O=c1[nH]cc(-c2cc(N3CC(OCC(F)(F)F)C(F)(F)C3)c3nccn3n2)c(=O)[nH]1 (centres unmarked) [Example 203]
19 | > 250 nM | – | COC(=O)[C@H]1[C@@H]2CN(c3cc(-c4c[nH]c(=O)[nH]c4=O)nn4ccnc34)C[C@@H]21 [Example 314, methyl (1R,5S,6r)-3-(6-(2,4-dioxo-1,2,3,4-tetrahydropyrimidin-5-yl)imidazo[1,2-b]pyridazin-8-yl)-3-azabicyclo[3.1.0]hexane-6-carboxylate]
20 | 1.15 nM | 1.59 nM | O=c1[nH]cc(-c2cc([C@H]3C[C@@H]3c3ccc4c(c3)ncn4CC(F)(F)F)c3nccn3n2)c(=O)[nH]1 [Example 324, 5-(8-((1S,2S)-2-(1-(2,2,2-trifluoroethyl)-1H-benzo[d]imidazol-5-yl)cyclopropyl)imidazo[1,2-b]pyridazin-6-yl)pyrimidine-2,4(1H,3H)-dione]
21 | – | 0.07 nM | O=c1[nH]cc(-c2cc([C@H]3C[C@@H]3c3cc4c(cn3)cnn4CC(F)(F)F)c3ncc(F)n3n2)c(=O)[nH]1 [Example 611, 5-(3-fluoro-8-((2S,2S)-2-(1-(2,2,2-trifluoroethyl)-1H-pyrazolo[4,3-c]pyridin-6-yl)cyclopropyl)imidazo[1,2-b]pyridazin-6-yl)pyrimidine-2,4(1H,3H)-dione]
22 | – | 154 nM | O=c1[nH]cc(-c2cc(N3C[C@H]4CC[C@@H]3C4)c3nccn3n2)c(=O)[nH]1 [Example 642, 5-(8-((1R,4S)-2-azabicyclo[2.2.1]heptan-2-yl)imidazo[1,2-b]pyridazin-6-yl)pyrimidine-2,4(1H,3H)-dione]
